This passage reports EC50 and CC50 results from patent US8614063B2, “Methods for screening for compounds for treating cancer” (PTC Therapeutics, Inc., priority 2008, dated 2013).

One data set concerns Bmi-1. In words: Bmi-1 Sandwich ELISA (endogenous Bmi-1 protein in HT-1080 cells). The class given is cell-based, human. Conditions: 40-48 hours compound treatment. As to the method:
In another embodiment, the levels of endogenous Bmi-1 are determined by the Bmi-1 Sandwich ELISA. A Sandwich ELISA measures the amount of antigen, in this case Bmi-1, between two layers of antibodies (i.e. capture and detection antibody). The capture antibody is immobilized in the wells of an ELISA plate and when a cell lysate or other sample is added to the plate, the specific protein of interest (Bmi-1) is bound by this capture antibody. A second antibody, called the detecting antibody, is then added, which binds to the bound protein and helps increase the signal. […] Either monoclonal or polyclonal antibodies can be used as the capture and detection antibodies in Sandwich ELISA systems. Monoclonal antibodies recognize a single epitope that allows fine detection and quantification of […] differences in antigen. A polyclonal is often used as the capture antibody to pull down as much of the antigen as possible.
HT-1080 cells were seeded at 5000 cells/well (50 μL) in 96-well tissue culture plates. After the cells become adherent (3-4 hours), 2× diluted stocks of compounds in 50 μL DMEM containing 1% DMSO (final DMSO concentration was 0.5%) were added and the plates were incubated at 37° C. under 5% CO2 for 40-48 hours
The plate was covered with a plate seal and allowed to stand overnight.
1× Lysis Buffer (40 μL) was added to each well and the plate was shaken for 5-10 minutes on an orbital shaker to allow cell lysis, then Diluent (1% BSA in PBS in 0.5% NP40) (100 μL) was added to each well.
Aliquots can be kept at 4° C. and reused after first thaw, but only for 1-2 weeks. The Bmi-1 Recombinant Protein Standard contains a GST and thus will show up on western blots around 70 Kda.
The prepared ELISA plate was washed 3× with Wash Buffer (0.05% Tween-20 in PBS). The final wash was removed from the plate and the plate was blotted dry on paper towels. Blocking Buffer (300 μL) (1% BSA in PBS) was added per well. The plate was covered with a plate seal and incubated at room temperature for 1 hour. The blocked plate was washed 3× with Wash Buffer, the final wash was removed and the plate was blotted dry on paper towels. The previously prepared samples and standards were added (at 100 μL/well) and the plate was covered with a plate seal and incubated at 4° C. overnight.
The prepared ELISA plate was removed from 4° C., incubated at room temperature for 30 minutes, then washed and blotted dry as previously described for Day 3. […] The plate was covered with a plate seal and incubated for 1.5 hrs at room temperature.
The ELISA plate was washed and blotted dry as previously described.
The plate was incubated for 20-30 minutes at room temperature in the dark, then Stop Solution (2 M sulfuric acid in water) ([…]) was added per well. The plates were read at OD450 (experimental) and OD570 (reference).
(An ELISA detects its analyte on a solid surface through an enzyme-linked reagent.)

The subject of data set [1] is firefly luciferase (fLuc) reporter gene flanked by the 5′-UTR and 3′-UTR of Bmi-1 mRNA. In words: Luciferase reporter gene assay in stable 293H cells. Type of data set: cell-based. Conditions: Homo sapiens, fLuc flanked by Bmi-1 5′-UTR and 3′-UTR. From the text: A high-level expression vector, pcDNA™3.1/Hygro (Invitrogen Corp., Carlsbad, Calif.) was used for preparing the constructs comprising the luciferase gene flanked by any of the Bmi-1 5′-UTR and 3′-UTR, or the Bmi-1 5′-UTR or the Bmi-1 3′-UTR of Bmi-1 mRNA. In a pcDNA™3.1/Hygro vector, the UTRs and restriction sites associated with cloning, expressing, or cloning and expressing a gene of interest or a reporter gene were removed or replaced. For each construct containing 5′-UTR sequences, the 5′-UTR sequences with the first 21 nucleotides of Bmi-1 ORF were cloned into the vector using the appropriate restriction sites so that the first 21 nucleotides were in frame with the luciferase reporter gene.
The cells were passaged every 4 days at 1:10 dilution. Cultures were kept in a 37° C. and 5% CO2 incubator. The cells were scaled-up over a three day period before performing the assay. Two confluent T175 flasks were split into twenty T175 flasks (1:10 dilution). Cells were harvested from each confluent flask by removing all of the media and adding 4 mL of warmed trypsin to dislodge the cells. After the cells were dislodged, 16 mL of selective media was added for a final volume of 20 mL. The cells were expanded by adding 2 mL of the harvested cells into ten new T175 flasks plus 25 mL of selective media. The twenty new flasks are placed into the 37° C., 5% CO2 incubator. On the day the assay was performed, the media was removed from the flasks and 3 mL of warmed trypsin was added to dislodge the cells. After the cells were dislodged, 10 mL of nonselective media was to the flask. This was repeated for all twenty flasks and combined into one flask. 100 μL of the above cell culture plus 100 μL of Trypan Blue stain was counted on a hemocytometer.
Luciferase activity was immediately assayed using a ViewLux Imaging system (Perkin Elmer).

A short description of data set [2]: CellTiter-Glo cytotoxicity assay, Huh7. The class given is cell-based. Conditions: human, Huh7 cells (hepatocellular carcinoma cell line); Huh7, intermediate level of sensitivity. Background: In ATP-based viability assays light output follows the ATP content of the culture.
Data set [3] in a line: CellTiter-Glo cytotoxicity assay, U937. The class given is cell-based. Conditions: human, U937 cells (monocyte cell line); U937, relatively sensitive cell line. An excerpt: To evaluate cytotoxicity of the compounds in the 293H cell lines, the CellTiter-Glo® assay (Promega) is utilized. CellTiter-Glo® determines the number of viable cells in culture based on quantification of the ATP present, which signals the presence of metabolically active cells. A reduction in cellular ATP is indicative of a cytotoxic or cytostatic effect. Doxorubicin, a known cytotoxic compound, is used to address the sensitivity of the tested cell line. For relatively sensitive cell lines, such as U937 (a human monocyte cell line), the CC50 of doxorubicin ranges from 4 to 10 nM.

The EC50 is the concentration that produces a half-maximal response. Higher therefore signals a less potent agent. As to `COc1cc(Br)c(Nc2nc(-c3c(C)nc4ncccn34)cs2)c(Br)c1` [Compound 1, N-(2,6-dibromo-4-methoxyphenyl)-4-(2-methylimidazo[1,2-a]pyrimidin-3-yl)thiazol-2-amine], the figures for the EC50 (in the data set on Bmi-1; in data set [1]) were 410 nM and 530 nM, respectively.

For `COc1cc(Cl)c(Nc2nc(-c3c(C)nc4ncccn34)cs2)c(Cl)c1` [Compound 2, N-(2,6-dichloro-4-methoxyphenyl)-4-(2-methylimidazo[1,2-a]pyrimidin-3-yl)thiazol-2-amine], the EC50 came to 660 nM in the data set with Bmi-1 and 910 nM in data set [1].

As to `COc1cc(F)c(Nc2nc(-c3c(C)nc4ncccn34)cs2)c(F)c1` [Compound 3, N-(2,6-difluoro-4-methoxyphenyl)-4-(2-methylimidazo[1,2-a]pyrimidin-3-yl)thiazol-2-amine], the 50% effective concentration (EC50) in the data set on Bmi-1 is above 3000 nM; in data set [1], 17600 nM.

As for `Cc1cc(Br)c(Nc2nc(-c3c(C)nc4ncccn34)cs2)c(Br)c1` [Compound 4, N-(2,6-dibromo-4-methylphenyl)-4-(2-methylimidazo[1,2-a]pyrimidin-3-yl)thiazol-2-amine], the results for the half-maximal effective concentration (EC50) (with Bmi-1; in data set [1]) were 320 nM and 540 nM, respectively.

For the compound `Cc1nc2ncccn2c1-c1csc(Nc2c(Br)cc(Br)cc2Br)n1` [Compound 5, 4-(2-methylimidazo[1,2-a]pyrimidin-3-yl)-N-(2,4,6-tribromophenyl)thiazol-2-amine], the EC50 in the data set with Bmi-1 was 710 nM; in data set [1], 800 nM.

In the case of `COCCOc1cc(Br)c(Nc2nc(-c3c(C)nc4ncccn34)cs2)c(Br)c1` [Compound 6, N-(2,6-dibromo-4-(2-methoxyethoxy)phenyl)-4-(2-methylimidazo[1,2-a]pyrimidin-3-yl)thiazol-2-amine], the concentration for a half-maximal effect (EC50) with Bmi-1 turned out to be 1700 nM; in data set [1], 2600 nM.

Consider `COc1cc(Br)c(Nc2nc(-c3cnc4ccc(Cl)cn34)cs2)c(Br)c1` [Compound 7, 4-(6-chloroimidazo[1,2-a]pyridine-3-yl)-N-(2,6-dibromo-4-methoxyphenyl)thiazol-2-amine], for which the values for the concentration giving a half-maximal response (EC50) (in the data set on Bmi-1; in data set [1]) were 360 nM and 750 nM, respectively.

Turning to `Cc1cc(Br)c(Nc2nc(-c3cnc4ccc(Cl)cn34)cs2)c(Br)c1` [Compound 8, 4-(6-chloroimidazo[1,2-a]pyridine-3-yl)-N-(2,6-dibromo-4-methylphenyl)thiazol-2-amine], the half-maximal effective concentration (EC50) is 390 nM with Bmi-1 and 3800 nM in data set [1].

As for `COc1cc(Cl)c(Nc2nc(-c3cnc4ccc(Cl)cn34)cs2)c(Cl)c1` [Compound 9, 4-(6-chloroimidazo[1,2-a]pyridine-3-yl)-N-(2,6-dichloro-4-methoxyphenyl)thiazol-2-amine], the EC50 in the data set with Bmi-1 is 1090 nM; in data set [1], 940 nM.

What is called CC50 is the concentration giving 50% cytotoxicity. A high value points to better tolerance by the cells. Consider `COc1cccc2c1C(=O)c1c(O)c3c(c(O)c1C2=O)C[C@@](O)(C(=O)CO)C[C@@H]3O[C@H]1C[C@H](N)[C@H](O)[C@H](C)O1` [doxorubicin, Doxorubicin], for which the results for the 50% cytotoxic concentration (CC50) in data set [2] and in data set [3] were 70 to 300 nM and 4 to 10 nM, respectively.
